Target: T1, IRAK4 (Homo sapiens, UniProt Q9NWZ3)
T1 construct: endogenous in cells; host or cells: OCI-LY10
T1 sequence (Q9NWZ3 1-460): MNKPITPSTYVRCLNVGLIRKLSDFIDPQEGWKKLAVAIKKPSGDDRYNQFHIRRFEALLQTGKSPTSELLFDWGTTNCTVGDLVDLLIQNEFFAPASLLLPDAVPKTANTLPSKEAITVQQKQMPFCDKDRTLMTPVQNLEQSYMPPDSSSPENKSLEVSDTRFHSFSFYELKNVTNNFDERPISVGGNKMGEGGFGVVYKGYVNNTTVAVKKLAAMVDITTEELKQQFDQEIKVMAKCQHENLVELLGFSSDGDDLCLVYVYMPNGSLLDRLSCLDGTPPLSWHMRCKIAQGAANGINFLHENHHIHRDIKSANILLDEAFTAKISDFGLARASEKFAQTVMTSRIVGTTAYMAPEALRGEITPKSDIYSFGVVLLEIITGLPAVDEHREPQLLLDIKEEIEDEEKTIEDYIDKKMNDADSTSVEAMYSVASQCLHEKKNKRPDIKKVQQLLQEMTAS
Assay: IRAK4 MSD Degradation in OCI-LY10
Type: cell-based
Details: OCI-LY10 cells, Meso Scale Discovery, incubated 4 to 24 hours
Method: Degradation of IRAK4 in OCI-LY10 was quantitatively measured using Meso Scale Discovery technology. OCI-LY10 cells were seeded in 96-well plates (Corning 3799) with a density of 300,000 cells per well in 100 μL fresh media. Compounds were then added to the assay plates with a final top concentration of 1 to 10 μM in a 1:3 dilution series with total of 8 doses. The assay plates were then incubated for 4 to 24 hours at 37° C. under 5% CO2. The assay plates were then centrifuged for 5 minutes and the cell pellets were treated with 100 μL/well RIPA lysis buffer (Boston BioProducts BP-115D) with proteinase inhibitors. To prepare MSD assay plates (Meso Scale Discovery Catalog number L15XA-3), the plates were coated with 2 μg/mL capture antibody (mouse Anti-IRAK4 antibody [2H9], ab119942) in PBS, at 40 μL/well. The plates were then incubated overnight at 4° C., washed 3 times with 150 μL/well TBST buffer (Cell Signaling Technology, Catalog number 9997S) and blocked with 150 μL/well blocking buffer (Meso Scale Discovery Catalog number R93BA-4). Cell lysates were then added to MSD assay plates and the plates were incubated at room temperature for 1 hour. The plates were then washed 3 times with 150 μL/well TBST buffer and […] primary detection antibody (rabbit Anti-IRAK4 antibody [Y279], from Abcam. Catalog number ab32511, 1 μg/mL). The assay plates were then incubated at room temperature for 1 hour, washed 3 times with 150 μL/well TBST buffer and 254/well secondary detection antibody, SULFO-TAG anti-rabbit antibody were added (anti rabbit antibody from Meso Scale Discovery, Catalog number R32AB-1, 1 μg/mL). The assay plates were then incubated at room temperature for 1 hour, washed 3 times with 150 μL/well TBST buffer, and 150 μL/well MSD reading buffer (Meso Scale Discovery catalog number R92TC-2) was added. The plates were then analyzed by a MSD reader (Meso Scale Discovery, Model Quick Plex SQ 120). The data was then analyzed by software Prism 7.0 from GraphPad and the dose-depended IRAK4 degradation were fit using a three-parameter logistic equation to calculate DC50.
The letter codes for IRAK4 DC50 include: A (<0.01 μM); B (0.01-0.05 μM); C (0.05-0.1 μM); D (0.1-0.2 μM); and E (>0.2 μM).

Compared with `COc1cc2nn([C@H]3CC[C@H](CN4CC[C@@H](c5cccc6c(N7CCC(=O)NC7=O)cncc56)C4)CC3)cc2cc1NC(=O)c1cccc(C(F)(F)F)n1` [I-291], `COc1cc2nn([C@H]3CC[C@H](CN4CCN(c5c(C)ccc6c(N7CCC(=O)NC7=O)cncc56)CC4)CC3)cc2cc1NC(=O)c1cccc(C(F)(F)F)n1` [I-331] is lower in DC50: 10 to 50 nM for the first, < 10 nM for the second.

First: CC(C)Nc1cc(-c2ccc3cc(C#N)cnn23)ncc1-c1cn([C@H]2CC[C@H](CN3CCN(c4cccc5c4n(C)c(=O)n5C4CCC(=O)NC4=O)CC3)CC2)nn1 (some centres unmarked) [I-411]
Second: COc1cc2nn([C@H]3CC[C@H](CN4CCN(c5cccc6c5n(C)c(=O)n6C5CCC(=O)NC5=O)CC4)CC3)cc2cc1NC(=O)c1cncc(C(F)(F)F)n1 (some centres unmarked) [I-297]
The DC50 of the first is higher: 10 to 50 nM for the first, < 10 nM for the second.

`COc1ccc2c(c1C1CCN(C[C@H]3CC[C@H](n4cc5cc(NC(=O)c6cccc(C(F)(F)F)n6)c(C#N)cc5n4)CC3)CC1)n(C)c(=O)n2C1CCC(=O)NC1=O` (some centres unmarked) [I-205] and `COc1ccc2c(c1C1CCN(C[C@H]3CC[C@H](n4cc5cc(NC(=O)c6cccc(C(F)(F)F)n6)ncc5n4)CC3)CC1)n(C)c(=O)n2C1CCC(=O)NC1=O` (stereo partly drawn) [I-104, N-[2-[4-[[4-[1-[(3S)-2,6-dioxo-3-piperidyl]-5-methoxy-3-methyl-2-oxo-benzimidazol-4-yl]-1-piperidyl]methyl]cyclohexyl]pyrazolo[3,4-c]pyridin-5-yl]-6-(trifluoromethyl)pyridine-2-carboxamide] cannot be ordered by DC50: < 10 nM for the first, < 10 nM for the second.

Compared with `Cn1c(=O)n(C2CCC(=O)NC2=O)c2cccc(N3CCN(C[C@H]4CC[C@H](n5cc6cc(NC(=O)c7cccc(C(F)(F)F)n7)c(F)cc6n5)CC4)CC3)c21` (some centres unmarked) [I-359], `Cc1cc2nn([C@H]3CC[C@H](CN4CCC(c5cccc6c5n(C)c(=O)n6[C@H]5CCC(=O)NC5=O)CC4)CC3)cc2cc1NC(=O)c1cccc(C(F)(F)F)n1` (single isomer, unassigned) [I-390] is higher in DC50: < 10 nM for the first, 10 to 50 nM for the second.

Compared with `Cn1c(=O)n(C2CCC(=O)NC2=O)c2cccc(C3CCN(C[C@H]4CC[C@H](n5cc6cc(NC(=O)c7cccc(C(F)(F)F)n7)cc(F)c6n5)CC4)CC3)c21` (some centres unmarked) [I-240], `Cc1cc(C2CCN(C[C@H]3CC[C@H](n4cc5cc(NC(=O)c6cccc(C(F)(F)F)n6)c(F)cc5n4)CC3)CC2)c2c(c1)n(C1CCC(=O)NC1=O)c(=O)n2C` (some centres unmarked) [I-23] is higher in DC50: < 10 nM for the first, 100 to 200 nM for the second.

`COc1cc2nn([C@H]3CC[C@H](CN4CCC(c5c(C)ccc6c5n(C)c(=O)n6C5CCC(=O)NC5=O)CC4)CC3)cc2cc1NC(=O)c1cncc(C#N)c1` (some centres unmarked) [I-109] and `COc1cc2nn([C@H]3CC[C@H](CN4CCC(c5c(OC)ccc6c5n(C)c(=O)n6C5CCC(=O)NC5=O)CC4)CC3)cc2cc1NC(=O)c1cncc(Cl)c1` (some centres unmarked) [I-111] cannot be ordered by DC50: < 10 nM for the first, < 10 nM for the second.

`Cn1c(=O)n(C2CCC(=O)NC2=O)c2cccc(N3CC4CC(C3)N4C[C@H]3CC[C@H](n4cc5cc(NC(=O)c6cccc(C(F)(F)F)n6)c(C(C)(C)O)cc5n4)CC3)c21` (some centres unmarked) [I-232] and `COc1cc2nn([C@H]3CC[C@H](CN4C5CCC4CN(c4cccc6c4n(C)c(=O)n6C4CCC(=O)NC4=O)C5)CC3)cc2cc1NC(=O)c1cccc(C(F)(F)F)n1` (some centres unmarked) [I-167] cannot be ordered by DC50: < 10 nM for the first, < 10 nM for the second.

Compared with `COc1cc2nn([C@H]3CC[C@H](CN4CCN(c5c(OC)ccc6c(N7CCC(=O)NC7=O)cncc56)CC4)CC3)cc2cc1NC(=O)c1cccc(C(F)(F)F)n1` [I-332], `COc1cc2nn([C@H]3CC[C@H](CN4CCN(c5cccc6c(N7CCC(=O)NC7=O)ccnc56)CC4)CC3)cc2cc1NC(=O)c1cccc(C(F)(F)F)n1` [I-382] is lower in DC50: 10 to 50 nM for the first, < 10 nM for the second.

`COc1cc2nn([C@H]3CC[C@H](CN4CCC(c5cccc6c5n(C)c(=O)n6C5CCC(=O)NC5=O)CC4)CC3)cc2cc1NC(=O)c1cncc(C(F)(F)F)c1` (some centres unmarked) [I-86] and `COc1cc2nn([C@H]3CC[C@H](CN4CCC(c5cccc6c5n(C)c(=O)n6C5CCC(=O)NC5=O)CC4)CC3)cc2cc1NC(=O)c1cncc(Cl)c1` (some centres unmarked) [I-93] cannot be ordered by DC50: < 10 nM for the first, < 10 nM for the second.

`COc1cc2nn([C@H]3CC[C@H](CN4CCC(c5cccc6c5n(C)c(=O)n6C5CCC(=O)NC5=O)CC4)CC3)cc2cc1NC(=O)c1cnc(OC)c(Cl)c1` (some centres unmarked) [I-193] and `Cn1c(=O)n(C2CCC(=O)NC2=O)c2cccc(C3CCN(C[C@H]4CC[C@H](n5cc6cc(NC(=O)c7cncc(C#N)c7)c(OC(F)(F)F)cc6n5)CC4)CC3)c21` (some centres unmarked) [I-325] cannot be ordered by DC50: > 200 nM for the first, > 200 nM for the second.

First: COc1cc2nn([C@H]3CC[C@H](CN(C)C4CCN(c5cccc6c5n(C)c(=O)n6C5CCC(=O)NC5=O)CC4)CC3)cc2cc1NC(=O)c1cc(F)cc(C(F)(F)F)c1 (some centres unmarked) [I-131]
Second: COc1cc2nn([C@H]3CC[C@H](CN(C)C4CCN(c5cccc6c5n(C)c(=O)n6C5CCC(=O)NC5=O)CC4)CC3)cc2cc1NC(=O)c1cncc(C(F)(F)F)c1 (some centres unmarked) [I-130]
The DC50 of the first is higher: 10 to 50 nM for the first, < 10 nM for the second.

Compared with `Cn1c(=O)n(C2CCC(=O)NC2=O)c2cccc(C3CCN(C[C@H]4CC[C@H](c5cc6cc(NC(=O)c7cccc(C(F)(F)F)n7)ccn6n5)CC4)CC3)c21` (some centres unmarked) [I-242], `Cn1c(=O)n(C2CCC(=O)NC2=O)c2cccc(C3CCN(C[C@H]4CC[C@H](n5cc6cc(NC(=O)c7cccc(C(F)(F)F)n7)ccc6n5)CC4)C(C(F)(F)F)C3)c21` (some centres unmarked) [I-172] is higher in DC50: < 10 nM for the first, > 200 nM for the second.

`COc1cc2nc([C@H]3CC[C@H](CN(C)CCCCNc4cccc5c4C(=O)N(C4CCC(=O)NC4=O)C5=O)CC3)sc2cc1NC(=O)c1cncc(C)c1` (some centres unmarked) [I-460] and `COc1cc2nc([C@H]3CC[C@H](CN(C)CCCNc4cccc5c4C(=O)N(C4CCC(=O)NC4=O)C5=O)CC3)sc2cc1NC(=O)c1cncc(C#N)c1` (some centres unmarked) [I-458] cannot be ordered by DC50: > 200 nM for the first, > 200 nM for the second.

`Cn1c(=O)n(C2CCC(=O)NC2=O)c2ccc(F)c(C3CCN(C[C@H]4CC[C@H](n5cc6cc(NC(=O)c7cccc(C#N)n7)ccc6n5)CC4)CC3)c21` (some centres unmarked) [I-128] and `COc1ccc2c(c1C1CCN(C[C@H]3CC[C@H](n4cc5cc(NC(=O)c6cccc(C#N)n6)ccc5n4)CC3)CC1)n(C)c(=O)n2C1CCC(=O)NC1=O` (some centres unmarked) [I-200] cannot be ordered by DC50: < 10 nM for the first, < 10 nM for the second.

First: COc1cc2nn([C@H]3CC[C@H](CN4CCC5(CC4)CC(CCNc4cccc6c4C(=O)N(C4CCC(=O)NC4=O)C6=O)C5)CC3)cc2cc1NC(=O)c1cnn2ccc(C(F)(F)F)nc12 (some centres unmarked) [I-15]
Second: CC(C)(O)c1cc2nn(-c3ccc(CN4CCC5(CCC(Nc6cccc7c6C(=O)N(C6CCC(=O)NC6=O)C7=O)CC5)CC4)cc3)cc2cc1NC(=O)c1cccc(C(F)(F)F)n1 (centres unmarked) [I-462]
The DC50 of the first is higher: > 200 nM for the first, 100 to 200 nM for the second.

Compared with `COc1cc2nc([C@H]3CC[C@H](CN4CCC(c5cccc6c5n(C)c(=O)n6C5CCC(=O)NC5=O)CC4)CC3)sc2cc1NC(=O)c1cncc(C#N)c1` (some centres unmarked) [I-185], `COc1cc2nc([C@H]3CC[C@H](CN(C)CCCCNc4cccc5c4C(=O)N(C4CCC(=O)NC4=O)C5=O)CC3)sc2cc1NC(=O)c1cccc(C#N)n1` (some centres unmarked) [I-433] is higher in DC50: < 10 nM for the first, 10 to 50 nM for the second.

First: CN(CCn1cc2cc(NC(=O)c3cccc(C(F)(F)F)n3)c(F)cc2n1)C1CCN(c2cccc3c2n(C)c(=O)n3C2CCC(=O)NC2=O)CC1 (centres unmarked) [I-19, N-[2-[2-[[1-[1-(2,6-dioxo-3-piperidyl)-3-methyl-2-oxo-benzimidazol-4-yl]-4-piperidyl]-methyl-amino]ethyl]-6-fluoro-indazol-5-yl]-6-(trifluoromethyl)pyridine-2-carboxamide]
Second: Cc1cccc(C(=O)Nc2cc3sc([C@H]4CC[C@H](CN5CCO[C@@H](CCCNc6cccc7c6C(=O)N(C6CCC(=O)NC6=O)C7=O)C5)CC4)nc3cc2C(C)(C)O)n1 (some centres unmarked) [I-472]
The DC50 of the first is higher: > 200 nM for the first, 50 to 100 nM for the second.

`CC(C)Nc1c(C(=O)N[C@H]2CC[C@H](CN3CCN(c4cccc5c(N6CCC(=O)NC6=O)cncc45)CC3)CC2)cnc2c1Oc1ccc(C#N)cc1O2` [I-408] was tested, and the DC50 was > 200 nM.

Reference: patent US12150995B2, “IRAK degraders and uses thereof” (Kymera Therapeutics, Inc., priority 2020, dated 2024)
